Our source for the EC50 and Emax values is US20230000842A1, “METHODS OF TREATING CARTILAGE DISORDERS THROUGH INHIBITION OF CLK AND DYRK” (SAMUMED, LLC, priority 2019, published 2023).

One test has as its target CLK2 kinase (Homo sapiens, UniProt P49760). Description: CLK2 kinase activity assay (Z-lyte FRET).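 Note: FRET read-out as coumarin to fluorescein emission ratio, unphosphorylated peptide as 0% and phosphorylated peptide as 100% controls, duplicate reactions, non-linear regression fit of dose-response curves.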 Type of test: biochemical. As to conditions: Z-lyte Ser/Thr 6 peptide, 60 μM ATP, 1 h at room temperature.
A further test addresses CLK3 kinase (Homo sapiens, UniProt P49761). The test can be described thus: CLK3 kinase activity assay (Z-lyte FRET).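 Note: kinase activity read as coumarin/fluorescein emission ratio by FRET, unphosphorylated peptide as 0% and phosphorylated peptide as 100% control, values from non-linear regression of dose-response curves.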 As to conditions: Z-lyte Ser/Thr 18 peptide, 156 μM ATP, 1 h at room temperature. Type of test: biochemical.
For test [1], the system named is primary human mesenchymal stem cells (hMSCs). The test can be described thus: Chondrogenesis screening using primary human mesenchymal stem cells. Type of test: cell-based. As to conditions: Homo sapiens, Mesenchymal stem cells, hMSC chondrogenesis; for EC50: concentration required to induce 50% levels of chondrogenesis with TGF-β3 as positive control, read-out: Conc (nM) of 50% TGF-β3 activity; for Emax: maximum activity relative to TGF-β3 (10 ng/mL) positive control, read-out: Max. Activity as % TGF-β3 activity. A digest of the protocol: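 Derived values are EC50 for 50% chondrogenesis, maximal activity and the dose giving it. These come from nodule area in passage 3–6 primary hMSCs, expressed as fold change over the mean of 3 same-plate DMSO wells, 2–3 replicates per concentration. TGF-β3 served as positive control.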

Test [2] has as its system Wnt pathway activity (SW480 colon carcinoma cells stably expressing the Sp5-Luc reporter). The test can be described thus: Wnt pathway activity screening assay (Sp5-Luc reporter gene assay). As to conditions: Homo sapiens, SW480, Table 4; SW480 cells stably expressing Sp5-Luc reporter, 10-point dose-response from 10 μM, 36 to 48 hours.

CLK2 kinase, sequence (P49760 whole entry): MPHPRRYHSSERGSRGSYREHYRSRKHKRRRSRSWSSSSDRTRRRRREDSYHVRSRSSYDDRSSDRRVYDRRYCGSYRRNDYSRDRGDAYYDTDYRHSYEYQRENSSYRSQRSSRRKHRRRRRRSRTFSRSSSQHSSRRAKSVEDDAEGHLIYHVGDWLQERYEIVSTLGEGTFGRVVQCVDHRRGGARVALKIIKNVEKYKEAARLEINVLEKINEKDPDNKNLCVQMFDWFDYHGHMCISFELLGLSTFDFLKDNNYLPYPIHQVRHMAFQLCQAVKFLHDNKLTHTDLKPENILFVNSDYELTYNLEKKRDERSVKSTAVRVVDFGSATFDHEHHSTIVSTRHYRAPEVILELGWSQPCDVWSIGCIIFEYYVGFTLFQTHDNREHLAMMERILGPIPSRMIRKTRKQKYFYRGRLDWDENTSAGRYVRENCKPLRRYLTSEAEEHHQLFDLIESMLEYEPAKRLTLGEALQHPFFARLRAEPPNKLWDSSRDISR
CLK3 kinase, sequence (P49761 whole entry): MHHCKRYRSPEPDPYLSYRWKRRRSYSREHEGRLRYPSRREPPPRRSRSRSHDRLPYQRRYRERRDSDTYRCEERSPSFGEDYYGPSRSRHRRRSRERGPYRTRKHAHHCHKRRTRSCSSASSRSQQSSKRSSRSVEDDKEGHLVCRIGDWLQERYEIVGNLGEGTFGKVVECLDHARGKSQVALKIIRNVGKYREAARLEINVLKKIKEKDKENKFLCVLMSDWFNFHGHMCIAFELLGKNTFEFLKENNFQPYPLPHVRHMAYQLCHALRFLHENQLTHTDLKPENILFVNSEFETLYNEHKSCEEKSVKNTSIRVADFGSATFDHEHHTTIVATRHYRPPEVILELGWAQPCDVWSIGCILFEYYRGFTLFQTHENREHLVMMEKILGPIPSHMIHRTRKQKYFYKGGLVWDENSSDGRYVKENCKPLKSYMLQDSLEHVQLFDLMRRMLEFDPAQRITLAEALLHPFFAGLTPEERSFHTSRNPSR

Consider `CS(=O)(=O)NCc1cc(F)cc(-c2nccc3[nH]c(-c4n[nH]c5ncc(-c6cncc(NC(=O)C7CCC7)c6)cc45)cc23)c1` [compound 528], for which the EC50 on CLK2 kinase is 5 nM; on CLK3 kinase, 59 nM; in test [1], 300 nM; in test [2], 3640 nM. Further, in test [1], the Emax was determined as 51.6%.
On to `CC(C)CC(=O)Nc1cncc(-c2ccc3[nH]nc(-c4nc5c(-c6cccs6)cncc5[nH]4)c3c2)c1` [compound 256], for which the EC50 at CLK2 kinase was found to be 9 nM; at CLK3 kinase, 62 nM; in test [2] it was 0.1 nM. Further, the Emax in test [1] was 53.3%.
As to `Oc1cncc(-c2ccc3[nH]nc(-c4nc5c(-c6cccc(F)c6)ccnc5[nH]4)c3n2)c1` [compound 146], the EC50 at CLK2 kinase amounted to 5 nM; on CLK3 kinase, 113 nM; in test [1] it was 2.29 nM; in test [2], 375 nM. The Emax in test [1] came out at 59.3%.
For `O=C(Nc1cncc(-c2cc3c(-c4cc5c(-c6ccc(F)cc6)nccc5[nH]4)n[nH]c3cn2)c1)C1CC1` [compound 314], in that order: 10 nM, 202 nM, 30 nM, 844 nM and 96.2%.
The matching figures for `O=C(Nc1cncc(-c2cc3c(-c4cc5cnccc5[nH]4)n[nH]c3cn2)c1)C1CCCCC1` [compound 433]: 3 nM, 62 nM, 30 nM, 1620 nM and 59.4%.
In the case of `CC(C)C(=O)Nc1cncc(-c2cnc3[nH]nc(-c4cc5c(-c6cc(F)cc(CNS(C)(=O)=O)c6)cncc5[nH]4)c3c2)c1` [compound 519], the EC50 at CLK2 kinase is 18 nM; at CLK3 kinase, 236 nM; in test [2] it was greater than 10000 nM. The Emax in test [1] was 59.6%.
Turning to `Cc1ccc(-c2nccc3[nH]c(-c4n[nH]c5cnc(-c6cncc(N)c6)cc45)nc23)s1` [compound 273], the EC50 at CLK2 kinase is 4 nM; at CLK3 kinase it was 29 nM; in test [1] it was 10 nM; in test [2], 9.2 nM. For the same molecule, in test [1], the Emax was 259%.
The matching figures for `CS(=O)(=O)NCc1cc(F)cc(-c2nccc3[nH]c(-c4n[nH]c5ccc(-c6cncc(NC(=O)Cc7ccccc7)c6)nc45)cc23)c1` [compound 530]: 17 nM, 151 nM, 10 nM, greater than 10000 nM and 110%.
Regarding `O=C(Nc1cncc(-c2cc3c(-c4nc5c(-c6cccs6)nccc5[nH]4)n[nH]c3cn2)c1)C1CC1` [compound 257], the EC50 on CLK2 kinase was determined as 7 nM; on CLK3 kinase, 115 nM; in test [2] it was 22.2 nM. Further, the Emax in test [1] came out at 68.3%.
Consider `CC1CCN(Cc2cncc(-c3ccc4[nH]nc(C(=O)Nc5cccnc5)c4c3)c2)CC1` [compound 98], for which the EC50 on CLK2 kinase is 1 nM; on CLK3 kinase, 86 nM; in test [1], 30 nM; in test [2], 7 nM. Besides, the Emax in test [1] was found to be 94.4%.
With `O=C(Nc1cncc(-c2ccc3[nH]nc(-c4cc5c(-c6ccncc6)nccc5[nH]4)c3c2)c1)C1CCCC1` [compound 395], the EC50 was 5 nM on CLK2 kinase, 30 nM at CLK3 kinase and greater than 10000 nM in test [2]. Also, the Emax in test [1] is 114%.
As for `CC(C)CC(=O)Nc1cncc(-c2cnc3[nH]nc(-c4cc5c(-c6cc(F)cc(CNS(C)(=O)=O)c6)cncc5[nH]4)c3c2)c1` [compound 523], the EC50 on CLK2 kinase worked out at 9 nM; on CLK3 kinase, 81 nM; in test [2], 2510 nM. Also, the Emax in test [1] was determined as 45.5%.
For `CCCC(=O)Nc1cncc(-c2ccc3[nH]nc(-c4nc5c(-c6ccsc6)cncc5[nH]4)c3c2)c1` [compound 246], in that order: 3 nM, 21 nM, 61.5 nM and 42%.
